Measurements taken from patent US20250134869A1, “Pyrrolo[2,3-d]pyrimidinyl, Pyrrolo[2,3-b]pyrazinyl and Pyrrolo[2,3-d]pyridinyl Acryla-mides” (Pfizer Inc, priority 2021, published 2025).
Where two headings read alike, the source gives them in different places.

Biological target: JAK3 enzyme (Homo sapiens (Human), UniProt P52333)
Assay: JAK Caliper Enzyme Assay at 4 μM or 1 mM ATP
Assay type: biochemical
Experimental: JAK Caliper Enzyme Assay at […] or 1 mM ATP
Test article was solubilized in dimethyl sulfoxide (DMSO) to a stock concentration of 30 mM. An 11-point half log dilution series was created in DMSO with a top concentration of 600 μM. […] The compound plates were diluted 1 to 60 resulting in a top final assay compound concentration of 10 μM and a 2% DMSO concentration.
Test article and assay controls were added to a 384-well plate. Reaction mixtures contained 20 mM HEPES, pH 7.4, 10 mM magnesium chloride, 0.01% bovine serum albumin (BSA), 0.0005% Tween […] or 1 mM ATP and […] peptide substrate. […] The assays were initiated by the addition 1 nM JAK3 enzyme and were incubated at room temperature 75 minutes for JAK3. Enzyme concentrations and incubation times were optimized for each new enzyme preps and were modified slightly over time to ensure 20%-30% phosphorylation. The assays were stopped with a final concentration of 10 mM EDTA, 0.1% Coating Reagent and 100 mM HEPES, pH=7.4. The assay plates were placed on a Caliper Life Science Lab Chip 3000 (LC3000) instrument, and each well was sampled using appropriate separation conditions to measure the unphosphorylated and phosphorylated peptide.

[1] = read-out: JAK3 (4 μM ATP) IC50, 4 μM ATP
[2] = read-out: JAK3 (1 mM ATP) IC50, 1 mM ATP

Sequence of JAK3 enzyme (P52333 whole entry, species assumed): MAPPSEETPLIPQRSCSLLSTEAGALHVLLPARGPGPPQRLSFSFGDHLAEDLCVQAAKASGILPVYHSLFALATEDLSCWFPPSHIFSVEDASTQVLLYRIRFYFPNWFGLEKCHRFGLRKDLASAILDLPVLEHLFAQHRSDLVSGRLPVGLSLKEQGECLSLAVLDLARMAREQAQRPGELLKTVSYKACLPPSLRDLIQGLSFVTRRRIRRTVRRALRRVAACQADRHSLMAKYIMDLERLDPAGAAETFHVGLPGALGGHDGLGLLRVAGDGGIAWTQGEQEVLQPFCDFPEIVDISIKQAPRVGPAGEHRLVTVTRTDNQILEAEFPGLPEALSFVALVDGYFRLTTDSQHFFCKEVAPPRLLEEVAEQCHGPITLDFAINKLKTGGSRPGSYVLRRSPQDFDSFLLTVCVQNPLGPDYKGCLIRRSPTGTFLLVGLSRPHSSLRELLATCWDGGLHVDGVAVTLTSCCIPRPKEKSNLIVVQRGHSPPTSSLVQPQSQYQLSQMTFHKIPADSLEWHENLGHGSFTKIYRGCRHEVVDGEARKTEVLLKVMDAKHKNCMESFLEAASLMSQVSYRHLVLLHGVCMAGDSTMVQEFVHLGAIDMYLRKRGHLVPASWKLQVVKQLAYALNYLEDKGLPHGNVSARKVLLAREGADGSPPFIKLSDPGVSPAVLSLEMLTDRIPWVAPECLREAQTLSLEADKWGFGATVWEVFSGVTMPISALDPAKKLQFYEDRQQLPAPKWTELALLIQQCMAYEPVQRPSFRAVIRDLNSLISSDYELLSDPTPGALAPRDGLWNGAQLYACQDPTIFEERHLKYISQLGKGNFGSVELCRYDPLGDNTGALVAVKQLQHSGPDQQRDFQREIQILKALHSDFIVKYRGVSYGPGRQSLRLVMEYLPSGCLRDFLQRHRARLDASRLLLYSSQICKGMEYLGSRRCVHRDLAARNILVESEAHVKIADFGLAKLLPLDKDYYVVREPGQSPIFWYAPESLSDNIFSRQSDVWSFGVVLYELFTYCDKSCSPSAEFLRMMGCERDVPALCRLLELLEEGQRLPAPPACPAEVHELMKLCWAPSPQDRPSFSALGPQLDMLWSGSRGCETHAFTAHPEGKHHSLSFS

Structure (SMILES) | IC50 [1] | IC50 [2]
C=CC(=O)N1CCC[C@@H](Nc2ncnc3[nH]cc(CCO)c23)C1 [Example 55, (R)-1-(3-((5-(2-Hydroxyethyl)-7H-pyrrolo[2,3-d]pyrimidin-4-yl)amino)piperidin-1-yl)prop-2-en-1-one] | 2 nM | 203 nM
C=CC(=O)N1C[C@H](Nc2ncnc3[nH]ccc23)C[C@H](N(C)C)C1 [Example 57, 1-((3R,5S)-3-((7H-Pyrrolo[2,3-d]pyrimidin-4-yl)amino)-5-(dimethylamino)piperidin-1-yl)prop-2-en-1-one] | 1.4 nM | 361 nM
C=CC(=O)N1C[C@@H](C#N)C[C@@H](Nc2ncnc3[nH]ccc23)C1 [Example 58, (3S,5R)-5-((7H-pyrrolo[2,3-d]pyrimidin-4-yl)amino)-1-acryloylpiperidine-3-carbonitrile] | 2.5 nM | 361 nM
C=CC(=O)N1C[C@H](O)C[C@@H](Nc2ncnc3[nH]ccc23)C1 [Example 60, 1-((3R,5R)-3-((7H-Pyrrolo[2,3-d]pyrimidin-4-yl)amino)-5-hydroxypiperidin-1-yl)prop-2-en-1-one] | 4.2 nM | 603 nM
C=CC(=O)N1CCC[C@@H](Nc2ncnc3[nH]cc(CCC#N)c23)C1 [Example 62, 3-(4-{[(3R)-1-Acryloylpiperidin-3-yl]amino}-7H-pyrrolo[2,3-d]pyrimidin-5-yl)propanenitrile] | 9 nM | 650 nM
C=CC(=O)N1CCC[C@@H](Nc2nc(Nc3cccnc3)nc3[nH]ccc23)C1 [Example 63, 1-[(3R)-3-{[2-(Pyridin-3-ylamino)-7H-pyrrolo[2,3-d]pyrimidin-4-yl]amino}piperidin-1-yl]prop-2-en-1-one] | 9.1 nM | 672 nM
C=CC(=O)N1C[C@H](Nc2ncnc3[nH]ccc23)C[C@@H](OC)C1 [Example 77, 1-[(3R,5R)-3-Methoxy-5-(7H-pyrrolo[2,3-d]pyrimidin-4-ylamino)piperidin-1-yl]prop-2-en-1-one] | 15.5 nM | 2070 nM
O=C(/C=C/CF)N1CC[C@@H]2CCN(c3ncnc4[nH]ccc34)[C@@H]2C1 [Example 87, (2E)-4-fluoro-1-[(3aS,7aS)-1-(7H-pyrrolo[2,3-d]pyrimidin-4-yl)octahydro-6H-pyrrolo[2,3-c]pyrdin-6-yl]but-2-en-1-one] | 139 nM | > 10000 nM
C=CC(=O)N1C[C@H](Nc2ncnc3[nH]ccc23)C[C@@H](N(C)C)C1 [Example 88, 1-[(3R,5R)-3-(Dimethylamino)-5-(7H-pyrrolo[2,3-d]pyrimidin-4-ylamino)piperidin-1-yl]prop-2-en-1-one] | 18.2 nM | 3390 nM
C=C(F)C(=O)N1CCC[C@@H](Nc2ncnc3[nH]ccc23)C1 [Example 91, 2-fluoro-1-[(3R)-3-(7H-pyrrolo[2,3-d]pyrimidin-4-ylamino)piperidin-1-yl]prop-2-en-1-one] | 56.5 nM | 4650 nM
C/C=C/C(=O)N1CCC[C@@H](Nc2ncnc3[nH]ccc23)C1 [Example 95, (2E)-1-[(3R)-3-(7H-pyrrolo[2,3-d]pyrimidin-4-ylamino)piperidin-1-yl]but-2-en-1-one] | 2480 nM | > 1000 nM

The next lines start with the values.

IC50 [1] | IC50 [2] | Structure (SMILES)
904 nM | > 10000 nM | COC(=O)C/C=C/C(=O)N1CCC[C@@H](Nc2ncnc3[nH]ccc23)C1 [Example 97, methyl (3E)-5-oxo-5-[(3R)-3-(7H-pyrrolo[2,3-d]pyrimidin-4-ylamino)piperidin-1-yl]pent-3-enoate]
2630 nM | > 10000 nM | CS/C=C/C(=O)N1CCC[C@@H](Nc2ncnc3[nH]ccc23)C1 [Example 98, (2E)-3-(methylsulfanyl)-1-[(3R)-3-(7H-pyrrolo[2,3-d]pyrimidin-4-ylamino)piperidin-1-yl]prop-2-en-1-one]
255 nM | > 10000 nM | CC/C=C(\C#N)C(=O)N1CCC[C@@H](Nc2ncnc3[nH]ccc23)C1 [Example 99, (2E)-2-{[(3R)-3-(7H-pyrrolo[2,3-d]pyrimidin-4-ylamino)piperidin-1-yl]carbonyl}pent-2-enenitrile]
654 nM | > 10000 nM | O=C(/C=C\CO)N1CCC[C@@H](Nc2ncnc3[nH]ccc23)C1 [Example 100, (2Z)-4-hydroxy-1-[(3R)-3-(7H-pyrrolo[2,3-d]pyrimidin-4-ylamino)piperidin-1-yl]but-2-en-1-one]
881 nM | > 10000 nM | N#CC(C(=O)N1CCC[C@@H](Nc2ncnc3[nH]ccc23)C1)=C1CCOCC1 [Example 101, 3-oxo-3-[(3R)-3-(7H-pyrrolo[2,3-d]pyrimidin-4-ylamino)piperidin-1-yl]-2-(tetrahydro-4H-pyran-4-ylidene)propanenitrile]
353 nM | > 10000 nM | C/C=C\C(=O)N1CCC[C@@H](Nc2ncnc3[nH]ccc23)C1 [Example 102, (2Z)-1-[(3R)-3-(7H-pyrrolo[2,3-d]pyrimidin-4-ylamino)piperidin-1-yl]but-2-en-1-one]
4.7 nM |  | C=CC(=O)N1CCCC(Nc2ncnc3[nH]ccc23)C1 (stereo not shown) [Example 103, 1-[3-(7H-pyrrolo[2,3-d]pyrimidin-4-ylamino)piperidin-1-yl]prop-2-en-1-one]
64.5 nM |  | C=CC(=O)N1CCC[C@H](Nc2ncnc3[nH]ccc23)C1 [Example 104, 1-[(3S)-3-(7H-pyrrolo[2,3-d]pyrimidin-4-ylamino)piperidin-1-yl]prop-2-en-1-one]
49.1 nM |  | CN(C)C/C=C/C(=O)N1CCC[C@H](Nc2ncnc3[nH]ccc23)C1 [Example 106, (2E)-4-(dimethylamino)-1-[(3S)-3-(7H-pyrrolo[2,3-d]pyrimidin-4-ylamino)piperidin-1-yl]but-2-en-1-one]
1160 nM |  | O=C(/C=C/c1c[nH]cn1)N1CCC[C@@H](Nc2ncnc3[nH]ccc23)C1 [Example 107, (2E)-3-(1H-imidazol-4-yl)-1-[(3R)-3-(7H-pyrrolo[2,3-d]pyrimidin-4-ylamino)piperidin-1-yl]prop-2-en-1-one]
528 nM | > 10000 nM | COCCc1c[nH]c2ncnc(N[C@@H]3CCCN(C(=O)/C=C/CN(C)C)C3)c12 [Example 108, (2E)-4-(dimethylamino)-1-[(3R)-3-{[5-(2-methoxyethyl)-7H-pyrrolo[2,3-d]pyrimidin-4-yl]amino}pipendin-1-yl]but-2-en-1-one]
2820 nM |  | C/C=C/C(=O)N1CCC[C@@H](Nc2ncnc3[nH]cc(CCOC)c23)C1 [Example 109, (2E)-1-[(3R)-3-{[5-(2-methoxyethyl)-7H-pyrrolo[2,3-d]pyrimidin-4-yl]amino}pipendin-1-yl]but-2-en-1-one]
1430 nM |  | C=C(C)C(=O)N1CCC[C@@H](Nc2ncnc3[nH]cc(CCOC)c23)C1 [Example 110, 1-[(3R)-3-{[5-(2-methoxyethyl)-7H-pyrrolo[2,3-d]pyrimidin-4-yl]amino}piperidin-1-yl]-2-methylprop-2-en-1-one]
39.2 nM | 4740 nM | C=CC(=O)N1CC[C@H]2CCN(c3ncnc4[nH]cc(C(C)=O)c34)[C@H]2C1 [Example 111, 1-[(3aR,7aR)-1-(5-Acetyl-7H-pyrrolo[2,3-d]pyrimidin-4-yl)octahydro-6H-pyrrolo[2,3-c]pyridin-6-yl]prop-2-en-1-one]
75.6 nM | > 10000 nM | C=CC(=O)N1CC[C@@]2(C)CCN(c3ncnc4[nH]ccc34)[C@H]2C1 [Example 122, 1-((3aR,7aR)-3a-Methyl-1-(7H-pyrrolo[2,3-d]pyrimidin-4-yl)hexahydro-1H-pyrrolo[2,3-c]pyridin-6 (2H)-yl)prop-2-en-1-one]
